Reference: PubChem BioAssay (NCI)
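Grown in 96-well plates, cells were treated for 48 hours with each compound at five concentrations. Insufficient inhibition: endpoint recorded as highest concentration tested. GI50: concentration for 50% inhibition of growth. TGI marks complete inhibition of growth.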

Columns and labels:
Experiment in all cases: inhibition of tumour cell growth, NCI panel, 48 h
HCC-2998 colon = system: HCC-2998 colon
MDA-N = system: MDA-N
SK-MEL-2 melanoma = system: SK-MEL-2 melanoma
UO-31 renal = system: UO-31 renal
NCI-H522 lung = system: NCI-H522 lung
SF-268 CNS = system: SF-268 CNS
HCT-15 colon = system: HCT-15 colon
NCI-H23 lung = system: NCI-H23 lung
OVCAR-3 ovarian = system: OVCAR-3 ovarian
RPMI-8226 leukemia = system: RPMI-8226 leukemia
SF-295 CNS = system: SF-295 CNS

SMILES	TGI (HCC-2998 colon) [µM]	TGI (MDA-N) [µM]	TGI (SK-MEL-2 melanoma) [µM]	TGI (UO-31 renal) [µM]	TGI (NCI-H522 lung) [µM]	TGI (SF-268 CNS) [µM]	TGI (HCT-15 colon) [µM]	TGI (NCI-H23 lung) [µM]	TGI (OVCAR-3 ovarian) [µM]	TGI (RPMI-8226 leukemia) [µM]	TGI (SF-295 CNS) [µM]	GI50 (OVCAR-3 ovarian) [µM]
O=C(O)c1c(CC(Cc2ccc3c(c2)CCCC3)C(=O)O)ccc2c1CCCC2 (stereo not drawn)	> 100	> 100	> 100	> 100	> 100	> 100	> 100	> 100	> 100	> 100	> 100	
COc1ccc(/C=C2\CN(C)CC3=C2OC(N)=C(C#N)C3c2ccc(OC)cc2)cc1 (stereo not drawn)	> 90.5	> 100	> 65.5	> 100	> 83.1	> 100	> 100	> 100	> 93.1	> 43.9	> 100	
Cc1cc2c(cc1O)CC[C@@H]1[C@@H]2CC[C@]2(C)[C@@H](O)CC[C@@H]12	24.1	4.39	19.8	37.6	23.4	46.8	16.4	35	22.1	19.2	20.3	9.14
C=CCN1C(=O)/C(=C/c2ccc(C)cc2)N=C1SC/C=C/C	> 100	> 100	57.7	> 100	> 100	> 100	> 100	> 100	> 100	36.6	> 100	
C=C1C(=O)OC2/C=C(\C)C(O)CC(O)C(C)(O)CC(OC(=O)/C(C)=C/C)C12 (stereo not drawn)	> 100	> 100	> 100	> 100	> 100	> 100	> 100	> 100	> 100	74.2	> 100	
O=C(CCCCCCCCC(=O)NN1C(=O)/C(=C\c2ccc(O)c(O)c2)SC1c1c(O)ccc2ccccc12)NN1C(=O)C(=Cc2ccc(O)c(O)c2)SC1c1c(O)ccc2ccccc12 (stereo not drawn)	> 100	> 100	> 38.6	26.8	30.7	> 100	> 100	95.1	> 32.9	21.1	> 100	
O=C1CC(Br)c2c(Cl)sc(Cl)c21 (stereo not drawn)	24.4	12.2	32.3	15.7	37.3	26.6	28.1	39.1	6.32	6.45	30.2	
